Experiments:
5-Lipoxygenase = target: T1, 5-Lipoxygenase (Homo sapiens, UniProt P09917); experiment: Calcium ionophore-induced LTB4 biosynthesis in human whole blood; assay type: cell-based; conditions: human heparinized whole blood, 15 min preincubation at 37° C., A23187 8.3 μM, 30 min, LTB4 by radioimmunoassay; read-out: IC50 against 5-Lipoxygenase from Stimulated LTB4 Formation in Human Whole Blood
T1 construct: from tissue; host or cells: human heparinized whole blood (endogenous enzyme of the blood leukocytes)
T1 sequence (P09917 1-674): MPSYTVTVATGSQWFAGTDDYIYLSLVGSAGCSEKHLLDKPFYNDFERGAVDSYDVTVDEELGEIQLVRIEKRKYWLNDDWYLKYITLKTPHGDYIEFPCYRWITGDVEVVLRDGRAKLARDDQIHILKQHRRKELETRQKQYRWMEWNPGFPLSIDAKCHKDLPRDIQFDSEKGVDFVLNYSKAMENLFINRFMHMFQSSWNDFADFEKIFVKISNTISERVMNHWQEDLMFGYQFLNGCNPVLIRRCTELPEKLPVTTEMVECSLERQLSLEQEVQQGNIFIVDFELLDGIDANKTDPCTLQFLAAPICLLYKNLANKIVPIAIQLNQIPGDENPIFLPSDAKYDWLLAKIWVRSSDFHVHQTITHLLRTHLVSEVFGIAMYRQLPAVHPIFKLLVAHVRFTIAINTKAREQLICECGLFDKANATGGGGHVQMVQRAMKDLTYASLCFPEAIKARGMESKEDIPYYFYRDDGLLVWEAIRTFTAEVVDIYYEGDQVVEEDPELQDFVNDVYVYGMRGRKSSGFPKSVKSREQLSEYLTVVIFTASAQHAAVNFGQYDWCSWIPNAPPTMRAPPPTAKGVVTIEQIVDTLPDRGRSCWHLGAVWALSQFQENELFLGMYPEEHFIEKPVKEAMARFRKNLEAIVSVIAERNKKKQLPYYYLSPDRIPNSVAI
Procedure: Inhibition of leukotriene biosynthesis was evaluated in an assay, involving calcium ionophore-induced LTB4 biosynthesis expressed human whole blood. […] The methanol extract was analyzed for LTB4 using a commercially available radioimmunoassay.

[1] = test system: biosynthesis of leukotrienes; experiment: Inhibition of leukotriene biosynthesis in vivo after oral administration, rat peritoneal anaphylaxis model; conditions: percent inhibition vs mean of control group, oral gavage 100 μmoles/kg one hour prior to antigen challenge, peritoneal fluids 15 minutes after challenge
Procedure: Inhibition of the biosynthesis of leukotrienes in vivo after oral administration of compound was determined using a rat peritoneal anaphylaxis model in a similar manner as that described by Young and coworkers (Young, P. R.; Dyer, R. D.; Carter, G. W. Fed. Proc., Fed. Am. Soc. Exp. Biol. 1985, 44, 1185). In this model rats were injected intraperitoneally (ip) with rabbit antibody to bovine serum albumin (BSA) and three hours later injected ip with BSA to induce an antigen-antibody response. Rats were sacrificed 15 minutes after this challenge and the peritoneal fluids were collected and analyzed for leukotriene levels. Test compounds were administered by gavage one hour prior to the antigen challenge. Percent inhibition values were determined by comparing the treatment group to the mean of the control group.

Row | IC50 (5-Lipoxygenase) [nM] | Compound | inhibition at 100 µmol/kg [1] [%]
1 | < 300 | NC(=O)N(O)C[C@H]1C[C@@H]1C1CC1 (relative stereo) [Example 1, N-1-(trans-2-cyclopropylcyclopropylmethyl)-N-hydroxyurea] | 96
2 | 900 | NC(=O)N(O)CC1CCC1 [Example 2, N-cyclobutylmethyl-N-hydroxyurea] | 92
3 | 700 | NC(=O)N(O)CC1CCCC1 [Example 3, N-cyclopentylmethyl-N-hydroxyurea] | 83
4 | 1100 | NC(=O)N(O)CC1CCCCC1 [Example 4, N-hydroxy-N-1-(1-cyclohexyl)methylurea] | 64
5 | < 1500 | NC(=O)N(O)CC1CCCCCC1 [Example 5, N-hydroxy-N-1-(1-cycloheptyl)methylurea] | 

Source: patent US5326787A, “Cycloalkyl N-hydroxy derivatives having lipoxygenase inhibitory activity” (Abbott Laboratories, priority 1993, dated 1994)
